Data published in ChEMBL document CHEMBL3507680, “University of Dundee, Gates Library screen for HepG2 cell viability”.

Assay: Human HepG2 cell viability assay in 384 well format
Format: toxicity, cell-based
Parameters: dose 125 nL, time 70.5 hour; cytotoxicity at 70.5 h: concentration not given beside the values
Details: HepG2 cells, read-out: Inhibition

Row | SMILES | cytotoxicity at 70.5 h
1 | CCCC(=O)Nc1cc(C(=O)NC(C)Cc2ccncc2)ccc1C (centres undefined) | -5.95%
2 | CC(C(=O)N1CCN(C)CC1)n1cc(Br)cn1 (centres undefined) | -1.37%
3 | CC(Cn1ccnc1)NCc1cc(Br)c2c(c1)OCO2 (centres undefined) | 12.5%
4 | O=C1CN(S(=O)(=O)c2ccc(F)cc2)CC(O)CN1CC1CC1 (centres undefined) | -9.49%
5 | CSCC[C@@H](CO)NC(=O)c1sc(-c2ccccc2Cl)nc1C | -16.5%
6 | CN(C)C(=O)C1CCCN1c1ncnc2ccsc12 (centres undefined) | -10.1%
7 | CCc1nc(C2CCCN2CC(=O)Nc2sc(C)c(C)c2C)no1 (centres undefined) | -5.03%
8 | O=C(C(CNCc1ccncc1)c1ccccc1)N1CCOCC1 (centres undefined) | -5.58%
9 | Cc1ccc(S(=O)(=O)NCc2[nH]ncc2Br)cc1F | -1.86%
10 | O=C(Nc1cc(-c2ccncc2)no1)C1CC1 | -10.1%
11 | CN(C)c1cnnc(N2CCN(C(=O)CCC3CCCCC3)CC2)c1 | -7.83%
12 | COc1ccc(CNC(=O)N(C)CC(C)(C)O)cc1OC | -109%
13 | O=C(Nc1ccc(F)cc1)C1CNCCN1C(=O)CC1CCCCC1 (centres undefined) | 31.3%
14 | NC(=O)CSCCC(=O)N1CCCC1c1ccsc1 (centres undefined) | -6.66%
15 | O=C(NC1CC1)c1ccnc(N2CCOC(c3ccc(Cl)c(Cl)c3)C2)c1 (centres undefined) | 9.19%
16 | CCCNC(=O)NC(=O)CN1C=Nc2ccccc2S1(=O)=O | -11.8%
17 | O=C(CC1CCCO1)NCCCC(=O)Nc1ccc(Cl)cc1 (centres undefined) | -7.07%
18 | CCC[C@H]1CN(Cc2ccc3c(c2)OCCO3)C[C@@H]1NC(=O)COC | 3.4%
19 | COc1ncc(C(F)(F)F)c(C(=O)O)c1Cl | 24.8%
20 | CCn1cncc1Cn1cccc(C(F)(F)F)c1=O | 2.51%
21 | O=C(NC1CCCCC1)c1nnc2ccc(N3CCOCC3)cc2n1 | -8.08%
22 | CN(CC(=O)N1CCN(CC(C)(C)O)CC1)c1ccc(Cl)cn1 | -17.3%
23 | Cc1cnc(C(=O)N2C[C@@H](NS(C)(=O)=O)[C@@H]3OCCC[C@@H]32)cn1 | -13.4%

Row | SMILES | cytotoxicity at 70.5 h
24 | CC(NC(=O)c1cccnc1N(C)C)c1ccccc1Cl (centres undefined) | -9.9%
25 | O=C(C1CCOCC1)N1CCO[C@H]2[C@@H](OCC3CC3)CC[C@@H]21 | -6.56%
26 | CN1CCC(c2nnc3ccc(C(=O)NC4CCCC4)cn23)C1 (centres undefined) | 15%
27 | Cn1c(CCNC(=O)Nc2cn[nH]c2)nc2ccc(F)cc21 | -1.73%
28 | COc1ccc(CNC(=O)Nc2ccc(=O)n(C)c2)cc1 | -3.5%
29 | Cc1cc(C[S+]([O-])CC(=O)NCc2cccc(Cl)c2)no1 (centres undefined) | -10.3%
30 | CN(C)C(=O)CN1CC[C@H]2[C@H]1CCN2c1ncccn1 | -20.8%
31 | CCOC(=O)C1CN(C(=O)COC)Cc2ncn(CC)c21 (centres undefined) | -5.03%
32 | CN(C)CCn1nc(C2CCN(S(=O)(=O)N(C)C)C2)c2cccnc21 (centres undefined) | -3.16%
33 | CN(Cc1nnc(-c2cccs2)o1)Cc1nc2c(s1)CCCC2 | -14.1%
34 | Cn1c(CN2CCN(CC3CC3)CC2)nnc1C1CCC1 | 20.3%
35 | Cc1nc(C(C)C)sc1C(C)N(C)C(=O)c1ccc(=O)n(C)c1 (centres undefined) | 1.52%
36 | COc1cc2c(cc1CNC(=O)C(C)n1ccnc1C(C)C)CCC2 (centres undefined) | -11.2%
37 | O=C1COC2(CCN(CC3CC3)CC2)CN1c1ccccc1 | -9.15%
38 | CCn1c(CN(C)C)nnc1C1CCN(Cc2cnc(C)nc2)CC1 | -5.5%
39 | CN(C(=O)c1cc(F)ccc1F)[C@@H]1CC[C@@H](O)[C@@H]1O | -2.95%
40 | Cc1ccccc1N1CC2(CCN(S(=O)(=O)c3cccs3)C2)CC1=O (centres undefined) | 14%
41 | Cc1nc(CN2CCCC(N(C)Cc3cnc(C)s3)C2)no1 (centres undefined) | -1.22%
42 | Cc1cnc(N2CCN3C[C@H](OCc4ccccn4)C[C@H]3C2)nc1 | -2.63%
43 | CCCn1nc2c(cc1=O)CN(CCCS(N)(=O)=O)CC2 | 3.74%
44 | Cc1cc(NC(=O)c2nn(C3CCS(=O)(=O)C3)c3c2CCCC3)no1 (centres undefined) | -24.1%
45 | Cc1cc(C)nc(N2CCN(Cc3cc4n(n3)CCNC4)CC2)n1 | -8.76%
46 | COC(=O)C1CN(CC(=O)Nc2ccccc2Cl)c2ccccc21 (centres undefined) | -5.02%

Row | SMILES | cytotoxicity at 70.5 h
47 | CCc1ccc(C(=O)NCc2cccc(S(=O)(=O)NC)c2)o1 | -0.952%
48 | CN(C)Cc1nnn2c1CN(Cc1cccnc1)CCC2 | -83.6%
49 | CCS(=O)(=O)CCNC(=O)NC(C)c1cc(C)sc1C (centres undefined) | -15.4%
50 | CCc1nc(C2CCCN2CCCc2nc3ccccc3o2)no1 (centres undefined) | -0.084%
51 | CC(=O)c1c(O)n(C)c2ccccc12 | 25.3%
52 | Cc1csc(CNC(=O)N(C)Cc2ccc3c(c2)OCCO3)n1 | -10.6%
53 | CC1CN(c2ncnc3c2cnn3C)CCN1c1nccs1 (centres undefined) | -4.86%
54 | CC(C)COc1ccccc1C(N)CC(C)C (centres undefined) | -10.1%
55 | COc1cccc(CN(C)Cc2ccccc2C#N)c1OC | -1.91%
56 | COc1ccc(N2CCC(N(C)C(C)C(=O)N(C)C)CC2)cc1 (centres undefined) | 15.1%
57 | CCc1nnc2n1CCN(C(=O)Cc1nc(-c3ccco3)oc1C)C2 | 10.8%
58 | COc1ccc2cc(CN(C)CCc3cn[nH]c3)c(=O)[nH]c2c1 | -6.43%
59 | Cn1c(CN2CCN(CC3CCCO3)CC2)nc2ccccc21 (centres undefined) | -9.16%
60 | CCOc1ncccc1C(=O)NCCN(CC)C1CC1 | 0.543%
61 | CC(Cn1ccnc1)NC(=O)C1(c2ccc(F)cc2)CCCC1 (centres undefined) | -7.69%
62 | CS(=O)(=O)N[C@@H]1CN(Cc2ccc3ncccc3c2)C[C@H]1O | -5.91%
63 | COc1c(C2CCCN2C(=O)c2cccn2C)c(C)nn1C (centres undefined) | 13.8%
64 | COc1ccc2c(c1)CCCN(C(C)C(=O)NC(C)C)C2 (centres undefined) | -15.7%
65 | CN(C)S(=O)(=O)c1ccc(CNC(=O)C2CC(=O)N(C(C)(C)C)C2)cc1 (centres undefined) | -1.42%
66 | Cc1cc(-c2cnn(CCNC(=O)c3cc[nH]n3)c2C2CC2)on1 | -0.801%
67 | CCN(CC)c1ccc(NC(=O)NCC2CCOC2)cn1 (centres undefined) | -12.2%
68 | O=S(=O)(c1cccs1)N1Cc2nc(COCC3CC3)oc2C1 | -5.06%
69 | Cn1cnn(Cc2ccccc2F)c1=O | 2.33%

Row | SMILES | cytotoxicity at 70.5 h
70 | CSCC(=O)N(Cc1ccccn1)Cc1ccccc1C | -4.08%
71 | Cc1nc(CSCCC(=O)NCc2ccc(-n3cncn3)nc2)cs1 | 24.6%
72 | CC1CN(Cc2ccccn2)CCN1c1ccc2nncn2n1 (centres undefined) | -0.942%
73 | CCS(=O)(=O)N1Cc2cncn2CC(C(=O)NCC2CC2)C1 (centres undefined) | 1.86%
74 | CC(C)c1nc2n(n1)CC(NCc1nnc(-c3ccco3)o1)CC2 (centres undefined) | -11.9%
75 | COc1ccc(N2Cc3n[nH]c(=O)n3C2=O)cc1 | -3.14%
76 | CCn1ncc2c1C(COCC1CC1)CN(c1ccncn1)C2 (centres undefined) | -8.04%
77 | O=C(Cn1ncc(N2CCCC2)cc1=O)Nc1ccc2nccnc2c1 | -3.43%
78 | Cc1nc(C)n(CC2CCCN(CCC(=O)NC3CCCCC3)C2)n1 (centres undefined) | -3.01%
79 | CS(=O)(=O)N1CCCN(C(=O)c2ccc(Cn3ccccc3=O)o2)CC1 | -7.8%
80 | CS(=O)(=O)NC1CCN(C(=O)COCc2ccccc2)CC1 | 18.3%
81 | O=C1CN(C(=O)C2CN(c3ccc(F)cc3)CCO2)CCN1 (centres undefined) | -7.29%
82 | O=C(c1ncccn1)N1CCC[C@]2(C[C@@H](Oc3ncccc3F)CO2)C1 | 21.8%
83 | COc1ccc(CN2C[C@@H]3OCCN(C)[C@@H]3C2)cc1 | -4.77%
84 | CSCC(=O)N1C[C@@H](C)[C@](O)(C(C)C)C1 | -7.39%
85 | Cc1noc(C)c1CN1CC[C@H]2OCC[C@@]2(C(=O)N2CCCO2)C1 | -7.09%
86 | CCn1nnc2c1C(COC)CN(Cc1cccs1)C2 (centres undefined) | 1.81%
87 | Cc1nn(C)c(C)c1Cc1nc(N(C)C)no1 | -0.362%
88 | Cc1[nH]c2c(F)cccc2c1CC(=O)NCCCc1csc(N)n1 | 5.37%
89 | CC(=O)N1C[C@H](NS(=O)(=O)N2CCOCC2)[C@@H](c2ccc(C)o2)C1 | -7.85%
90 | CN1C(=O)[C@H]2CC[C@@H]1CN(C(=O)Nc1cccc3ccccc13)C2 | -6.28%
91 | Fc1ccccc1Oc1nccnc1C1CCN(C2CCOCC2)CC1 | 30.2%
92 | N#Cc1cccc(Cl)c1NCCc1n[nH]c(=O)[nH]1 | -3.93%

Row | SMILES | cytotoxicity at 70.5 h
93 | Cc1cnn(CC2CCCN2CC(=O)Nc2cc(C)no2)c1 (centres undefined) | -3.79%
94 | COc1cccc(F)c1C(C)NC(=O)NCCc1ccc(C)nc1 (centres undefined) | 29.6%
95 | CCC(NC(=O)c1ccco1)c1ccccc1OCC(=O)N1CCCC1 (centres undefined) | -6.16%
96 | O=C(O)c1ccc2c(c1)C1(CCCCC1)CN2C(=O)c1cccs1 | -4.48%
97 | CCc1nc(NCC2CCCN(C(=O)C3CC3)C2)c2cnn(C)c2n1 (centres undefined) | -16.2%
98 | Cc1ccc(CNCc2nccn2C)c(OC(C)(C)C)c1 | -7.39%
99 | CCCc1nc(N2CC[C@@H](c3ccc4c(c3)OCO4)[C@H](O)C2)no1 | -9.08%
100 | Cc1ccccc1C(NC(=O)Cn1cc(C2CC2)nn1)C1CC1 (centres undefined) | -3.63%
101 | CS(=O)(=O)N1CCc2[nH]cnc2C12CCN(C(=O)c1ccccc1)CC2 | -1.52%
102 | CCn1cnnc1C1CCN(C(=O)c2cc3c(s2)CCOC3)CC1 | -9.84%
103 | Cc1n[nH]cc1CNC(C(=O)N1CCCCC1)c1ccccc1 (centres undefined) | 3.13%
104 | CCOc1cc(NC(=O)NCCn2cnnc2CC)ccc1C | -6.28%
105 | OCc1ccccc1CNCC1CNc2ccnn2C1 (centres undefined) | -1.22%
106 | CCn1ncc2c(C(F)(F)F)cc(-c3ccn(C)n3)nc21 | -8.47%
107 | Cc1ccccc1CNC(Cn1cncn1)c1ccccc1 (centres undefined) | 1.75%
108 | CC(NC(=O)NC1CCN(Cc2ccccn2)CC1)c1nncn1C (centres undefined) | -2%
109 | O=C(CCc1cccnc1)N(Cc1ccsc1)CC1CCCO1 (centres undefined) | -6.73%
110 | COc1ccc(CNCC(O)c2cccc(O)c2)cc1Br (centres undefined) | -3.02%
111 | COc1ccc(-c2nnc(C(C)N3CCC4(CC3)OCCO4)o2)cc1 (centres undefined) | -10.3%
112 | CC(C)C(=O)NS(=O)(=O)c1ccc2c(c1)N(C)CCC2 | -8.04%
113 | Cc1cccnc1CNc1ccc(C(=O)N2CCc3ccccc32)cn1 | 0.0725%
114 | Cc1cccc(-c2ccc(C(=O)N3CCN(C4CC4)CC3)c(=O)[nH]2)c1 | 22.8%
